Test results reported in patent US20230157952A1, “METHOD FOR IMPROVING THE STABILITY OF A PHARMACEUTICAL COMPOSITION COMPRISING A HIGH PENETRATION DRUG, AND THE PHARMACEUTICAL COMPOSITION OBTAINED THEREFROM” (Techfields Inc., priority 2020, published 2023).
Values belong to the compound of their own block, whether it stands above or below them.

Assay: Effect of temperature (and pH) on the stability of the solution (purity)
Assay type: physicochemical

Purity (%) at day 21 (60° C.) (pH 1.0, 7% solution in water): 0%
Purity(%) at day 0 (pH 1.0, 7% solution in water): 97.9 ± 0.3%
Purity(%) at day 21 (5° C.) (pH 1.0, 7% solution in water): 91.3 ± 0.3%
Purity(%) at day 21 (25° C.) (pH 1.0, 7% solution in water): 67.3 ± 0.3%
Purity(%) at day 21 (40° C.) (pH 1.0, 7% solution in water): 15.1 ± 0.3%
Purity (%) at day 21 (60° C.) (pH 2.0, 7% solution in water): 0%
Purity(%) at day 0 (pH 2.0, 7% solution in water): 98.0 ± 0.2%
Purity(%) at day 21 (5° C.) (pH 2.0, 7% solution in water): 95.1 ± 0.3%
Purity(%) at day 21 (25° C.) (pH 2.0, 7% solution in water): 82.1 ± 0.3%
Purity(%) at day 21 (40° C.) (pH 2.0, 7% solution in water): 27.0 ± 0.3%
Purity (%) at day 21 (60° C.) (pH 3.0, 7% solution in water): 0%
Purity(%) at day 0 (pH 3.0, 7% solution in water): 98.3 ± 0.2%
Purity(%) at day 21 (5° C.) (pH 3.0, 7% solution in water): 97.0 ± 0.2%
Purity(%) at day 21 (25° C.) (pH 3.0, 7% solution in water): 93.5 ± 0.2%
Purity(%) at day 21 (40° C.) (pH 3.0, 7% solution in water): 48.3 ± 0.3%
Purity (%) at day 21 (60° C.) (pH 3.7, 7% solution in water): 13.3 ± 0.5%
Purity(%) at day 0 (pH 3.7, 7% solution in water): 98.4 ± 0.1%
Purity(%) at day 21 (5° C.) (pH 3.7, 7% solution in water): 97.6 ± 0.2%
Purity(%) at day 21 (25° C.) (pH 3.7, 7% solution in water): 96.9 ± 0.3%
Purity(%) at day 21 (40° C.) (pH 3.7, 7% solution in water): 57.2 ± 0.2%
Purity (%) at day 21 (60° C.) (pH 4.0, 7% solution in water): 18.2 ± 0.3%
Purity(%) at day 0 (pH 4.0, 7% solution in water): 98.5 ± 0.1%
Purity(%) at day 21 (5° C.) (pH 4.0, 7% solution in water): 98.0 ± 0.1%
Purity(%) at day 21 (25° C.) (pH 4.0, 7% solution in water): 97.0 ± 0.2%
Purity(%) at day 21 (40° C.) (pH 4.0, 7% solution in water): 68.1 ± 0.3%
Purity (%) at day 21 (60° C.) (pH 4.3, 7% solution in water): 17.2 ± 0.2%
Purity(%) at day 0 (pH 4.3, 7% solution in water): 98.5 ± 0.2%
Purity(%) at day 21 (5° C.) (pH 4.3, 7% solution in water): 98.0 ± 0.1%
Purity(%) at day 21 (25° C.) (pH 4.3, 7% solution in water): 97.0 ± 0.3%
Purity(%) at day 21 (40° C.) (pH 4.3, 7% solution in water): 68.1 ± 0.3%
Purity (%) at day 21 (60° C.) (pH 4.6, 7% solution in water): 14.3 ± 0.3%
Purity(%) at day 0 (pH 4.6, 7% solution in water): 98.6 ± 0.1%
Purity(%) at day 21 (5° C.) (pH 4.6, 7% solution in water): 98.1 ± 0.2%
Purity(%) at day 21 (25° C.) (pH 4.6, 7% solution in water): 96.1 ± 0.2%
Purity(%) at day 21 (40° C.) (pH 4.6, 7% solution in water): 54.5 ± 0.2%
Purity (%) at day 21 (60° C.) (pH 5.0, 7% solution in water): 1.2 ± 0.2%
Purity(%) at day 0 (pH 5.0, 7% solution in water): 98.4 ± 0.2%
Purity(%) at day 21 (5° C.) (pH 5.0, 7% solution in water): 96.9 ± 0.2%
Purity(%) at day 21 (25° C.) (pH 5.0, 7% solution in water): 93.1 ± 0.3%
Purity(%) at day 21 (40° C.) (pH 5.0, 7% solution in water): 40.8 ± 0.3%
Purity (%) at day 21 (60° C.) (pH 6.0, 7% solution in water): 0%
Purity(%) at day 0 (pH 6.0, 7% solution in water): 98.2 ± 0.2%
Purity(%) at day 21 (5° C.) (pH 6.0, 7% solution in water): 95.0 ± 0.2%
Purity(%) at day 21 (25° C.) (pH 6.0, 7% solution in water): 86.7 ± 0.2%
Purity(%) at day 21 (40° C.) (pH 6.0, 7% solution in water): 27.8 ± 0.2%
Purity (%) at day 21 (60° C.) (pH 7.0, 7% solution in water): 0%
Purity(%) at day 0 (pH 7.0, 7% solution in water): 98.0 ± 0.3%
Purity(%) at day 21 (5° C.) (pH 7.0, 7% solution in water): 90.0 ± 0.3%
Purity(%) at day 21 (25° C.) (pH 7.0, 7% solution in water): 59.3 ± 0.3%
Purity(%) at day 21 (40° C.) (pH 7.0, 7% solution in water): 11.0 ± 0.4%
Purity (%) at day 21 (60° C.) (pH 8.0, 7% solution in water): 0%
Purity(%) at day 0 (pH 8.0, 7% solution in water): 97.8 ± 0.3%
Purity(%) at day 21 (5° C.) (pH 8.0, 7% solution in water): 78.3 ± 0.3%
Purity(%) at day 21 (25° C.) (pH 8.0, 7% solution in water): 47.1 ± 0.3%
Purity(%) at day 21 (40° C.) (pH 8.0, 7% solution in water): 0%
SMILES: CCN(CC)CCOC(=O)Cc1ccccc1Oc1ccc(Cl)cc1Cl.Cl

Purity (%) at day 21 (60° C.) (pH 1.02, 7% solution in water): 0%
Purity(%) at day 21 (5° C.) (pH 1.02, 7% solution in water): 93.1 ± 0.3%
Purity(%) at day 21 (25° C.) (pH 1.02, 7% solution in water): 70.7 ± 0.4%
Purity(%) at day 21 (40° C.) (pH 1.02, 7% solution in water): 18.5 ± 0.3%
Purity (%) at day 21 (60° C.) (pH 2.09, 7% solution in water): 0%
Purity(%) at day 21 (5° C.) (pH 2.09, 7% solution in water): 97.0 ± 0.4%
Purity(%) at day 21 (25° C.) (pH 2.09, 7% solution in water): 86.0 ± 0.4%
Purity(%) at day 21 (40° C.) (pH 2.09, 7% solution in water): 30.6 ± 0.4%
Purity (%) at day 21 (60° C.) (pH 3.01, 7% solution in water): 8.4 ± 0.3%
Purity(%) at day 21 (25° C.) (pH 3.01, 7% solution in water): 96.1 ± 0.3%
Purity(%) at day 21 (40° C.) (pH 3.01, 7% solution in water): 56.1 ± 0.4%
Purity (%) at day 21 (60° C.) (pH 3.68, 7% solution in water): 16.0 ± 0.4%
Purity(%) at day 21 (40° C.) (pH 3.68, 7% solution in water): 64.1 ± 0.5%
Purity (%) at day 21 (60° C.) (pH 4.07, 7% solution in water): 22.7 ± 0.4%
Purity(%) at day 21 (40° C.) (pH 4.07, 7% solution in water): 72.6 ± 0.4%
Purity (%) at day 21 (60° C.) (pH 4.35, 7% solution in water): 18.3 ± 0.3%
Purity(%) at day 21 (40° C.) (pH 4.35, 7% solution in water): 72.6 ± 0.5%
Purity (%) at day 21 (60° C.) (pH 4.67, 7% solution in water): 10.4 ± 0.5%
Purity(%) at day 21 (25° C.) (pH 4.67, 7% solution in water): 97.5 ± 0.4%
Purity(%) at day 21 (40° C.) (pH 4.67, 7% solution in water): 58.3 ± 0.4%
Purity (%) at day 21 (60° C.) (pH 4.96, 7% solution in water): 4.0 ± 0.3%
Purity(%) at day 21 (5° C.) (pH 4.96, 7% solution in water): 97.0 ± 0.4%
Purity(%) at day 21 (25° C.) (pH 4.96, 7% solution in water): 95.1 ± 0.4%
Purity(%) at day 21 (40° C.) (pH 4.96, 7% solution in water): 50.5 ± 0.5%
Purity (%) at day 21 (60° C.) (pH 5.98, 7% solution in water): 0%
Purity(%) at day 21 (5° C.) (pH 5.98, 7% solution in water): 95.8 ± 0.4%
Purity(%) at day 21 (25° C.) (pH 5.98, 7% solution in water): 90.2 ± 0.4%
Purity(%) at day 21 (40° C.) (pH 5.98, 7% solution in water): 29.9 ± 0.4%
Purity (%) at day 21 (60° C.) (pH 6.99, 7% solution in water): 0%
Purity(%) at day 21 (5° C.) (pH 6.99, 7% solution in water): 90.0 ± 0.5%
Purity(%) at day 21 (25° C.) (pH 6.99, 7% solution in water): 77.1 ± 0.4%
Purity(%) at day 21 (40° C.) (pH 6.99, 7% solution in water): 19.9 ± 0.4%
Purity (%) at day 21 (60° C.) (pH 8.01, 7% solution in water): 0%
Purity(%) at day 0 (pH 8.01, 7% solution in water): 97.6 ± 0.5%
Purity(%) at day 21 (5° C.) (pH 8.01, 7% solution in water): 81.1 ± 0.5%
Purity(%) at day 21 (25° C.) (pH 8.01, 7% solution in water): 52.3 ± 0.4%
Purity(%) at day 21 (40° C.) (pH 8.01, 7% solution in water): 0%
SMILES: CCN(CC)CCOC(=O)[C@H](C)c1ccc(CC(C)C)cc1.Cl
